Test results as given in DBAASP.
Converted amounts (≈) assume the structure as drawn. Blank lines part the entries; values can stand above or below the compound they belong to.

Assays:
Assay in all cases: ≥ marks a high value that may be exact or a test limit, other limits are often not marked, values filed in µg/mL are converted to µM
[1] = test system: Salmonella typhimurium KCTC 1926
[2] = test system: Pseudomonas aeruginosa KCTC 1637
[3] = test system: Aspergillus fumigatus KCTC 4165
[4] = test system: Streptococcus pyogenes KCTC 3096
[5] = test system: Escherichia coli KCTC 1682
[6] = test system: Candida albicans TIMM 1768
[7] = test system: Bacillus subtilis KCTC 1918
[8] = test system: Staphylococcus aureus KCTC 1621
Streptococcus mutans T8 = test system: Streptococcus mutans T8
[9] = test system: Streptococcus mutans ATCC 25175
[10] = test system: Streptococcus mutans ATCC 104495
[11] = test system: Streptococcus salivarius K12
[12] = test system: Streptococcus sanguinis ATCC 10556
[13] = test system: Streptococcus mutans UA140
[14] = test system: Streptococcus mutans comD
[15] = test system: Streptococcus gordonii DL1
[16] = test system: Streptococcus gordonii ATCC 10558
[17] = test system: Streptococcus sanguinis NY101
[18] = test system: Streptococcus mutans UA159
[19] = test system: Escherichia coli ATCC 25922
[20] = test system: Pseudomonas aeruginosa ATCC 9027
[21] = test system: Staphylococcus epidermidis ATCC 12222
[22] = test system: Bacillus subtilis ATCC 23857
[23] = test system: Staphylococcus aureus ATCC 29737
[24] = test system: Candida albicans ATCC 10231
[25] = test system: Klebsiella aerogenes ATCC 13048

MIC [1]: 12.5 µM (≈ 27 µg/mL)
MIC [2]: 6.25 µM (≈ 13.5 µg/mL)
MIC [3]: 25 µM (≈ 54 µg/mL)
MIC [4]: 25 µM (≈ 54 µg/mL)
MIC [5]: 25 µM (≈ 54 µg/mL)
MIC [6]: ≥ 50 µM
MIC [7]: 25 µM (≈ 54 µg/mL)
MIC [8]: 25 µM (≈ 54 µg/mL)
SMILES: CC[C@H](C)[C@H](NC(=O)[C@H](CCCCN)NC(=O)[C@H](CCCCN)NC(=O)[C@H](CC(C)C)NC(=O)[C@H](CCCCN)NC(=O)[C@H](CCC(=O)O)NC(=O)CN)C(=O)NCC(=O)N[C@@H](CCC(N)=O)C(=O)N[C@@H](CCCCN)C(=O)N[C@H](C(=O)N[C@@H](CCCCN)C(=O)N[C@@H](CCCCN)C(=O)N[C@@H](Cc1ccccc1)C(=O)N[C@@H](Cc1ccccc1)C(=O)N[C@@H](CCC(N)=O)C(=O)N[C@@H](CCCCN)C(=O)N[C@@H](CC(C)C)C(=O)O)[C@@H](C)CC [GEKLKKIGQKIKKFFQKL]

MIC (Streptococcus mutans T8): ≥ 60 µM
MIC [9]: ≥ 60 µM
MIC [10]: ≥ 64 µM
MIC [11]: ≥ 64 µM
MIC [12]: ≥ 64 µM
MIC [13]: ≥ 64 µM
MIC [14]: ≥ 60 µM
MIC [15]: ≥ 60 µM
MIC [16]: ≥ 64 µM
MIC [17]: ≥ 60 µM
MIC [18]: ≥ 60 µM
SMILES: CC(C)C[C@H](NC(=O)[C@H](C)NC(=O)[C@H](CCC(N)=O)NC(=O)[C@@H](NC(=O)[C@H](Cc1ccccc1)NC(=O)[C@H](CO)NC(=O)[C@H](CCCN=C(N)N)NC(=O)[C@H](CC(N)=O)NC(=O)[C@H](Cc1ccccc1)NC(=O)[C@H](CC(C)C)NC(=O)[C@H](CCCN=C(N)N)NC(=O)[C@H](Cc1ccccc1)NC(=O)[C@H](Cc1ccccc1)NC(=O)[C@@H](N)[C@@H](C)O)[C@@H](C)O)C(=O)NCC(=O)N[C@@H](CCCCN)C(=O)O [TFFRLFNRSFTQALGK]

MIC [19]: > 341 µM
MIC [20]: 43 µM (≈ 63 µg/mL)
MIC [21]: ≥ 43 µM
MIC [22]: 21.4 µM (≈ 31.3 µg/mL)
MIC [23]: ≥ 341 µM
MIC [24]: 85.3 µM (≈ 125 µg/mL)
MIC [25]: ≥ 341 µM
SMILES: CC(C)C[C@H](NC(=O)[C@H](CC(C)C)NC(=O)[C@H](CCCCN)NC(=O)[C@H](CCCCN)NC(=O)[C@H](CC(C)C)NC(=O)[C@H](CC(C)C)NC(=O)[C@H](CCCCN)NC(=O)[C@H](CCCCN)NC(=O)[C@H](CC(C)C)NC(=O)[C@@H](N)CC(C)C)C(=O)N[C@@H](CCCCN)C(=O)N[C@@H](CCCCN)C(N)=O [LLKKLLKKLLKK]
